Consider one compound from patent US10314809B2, “Application of derivative of clostridium ghonii” (SHANDONG XINCHUANG BIOTECHNOLOGY CO., LTD., priority 2014, dated 2019).

The subject of the test is non-small cell lung carcinoma A549 cells. As to the kind of experiment: Example 2: in-vivo test of spores combined with chemotherapy medicines in A549 tumor-bearing nude mice. Set-up: species or system Balb/c-nu/nu nude mice. The procedure: The non-small cell lung carcinoma A549 cells were injected into the subcutaneous positions at femoral lateral parts of right backs of female Balb/c-nu/nu nude mice (5 weeks old, 20 g) by subcutaneous injection. The in-vivo test was performed when the tumor volume was 300 mm^3.
Control group: n=15, and 0.2 ml of PBS buffer was intravenously injected to the tails;
Docetaxel group: n=15, Docetaxel was intravenously injected to the tails on the 4th day and 11th day, the dose was 20 mg/(kg·body weight), and the application dose of Docetaxel was the optimal application dose.
MW-DCG-HNCv-18 spore group: n=15, spores were intravenously injected to the tails, and the dose was 3×10^8/(kg·body weight).
MW-DCG-HNCv-18 spore+Cetuximab group: n=15, MW-DCG-HNCv-18 spores were intravenously injected to the tails on the first day, and the dose was 3×10^8/(kg·body weight); Cetuximab was intravenously injected to the tails on the 4th day and 11th day, the dose was 70 mg/(kg·body weight), and the application dose of Cetuximab was the optimal application dose.
MW-DCG-HNCv-18 spore+[…]: n=15, MW-DCG-HNCv-18 spores were intravenously injected to the tails on the first day, and the dose was 3×10^8/(kg·body weight); Adriacin was intravenously injected to the tails on the 4th day and 11th day, the dose was 10 mg/(kg·body weight), and the application dose of Adriacin was the optimal application dose.
MW-DCG-HNCv-18 spore+Docetaxel group: n=15, MW-DCG-HNCv-18 spores were intravenously injected to the tails on the first day, and the dose was 3×10^8/(kg·body weight); Docetaxel was intravenously injected to the tails on the 4th day and 11th day, and the dose was 20 mg/(kg·body weight).
C. novyi-NT spore+Docetaxel group: n=15, C. novyi-NT spores were intravenously injected to the tails on the first day, and the dose was 3×10^8/(kg·body weight);
Docetaxel was intravenously injected to the tails on the 4th day and 11th day, and the dose was 20 mg/(kg·body weight).
The major diameter (a) and transverse diameter (b) of the transplanted tumors of the nude mice were measured with a vernier caliper, 3 to 4 times a week, the tumor volume of each group was calculated, and the anti-tumor effects of the strains were observed dynamically. At the same time, the body weight, feeding, drinking, mental state, behavior, fur color, excretion and death situations of the tumor-bearing mice were observed and recorded.
The tumor volume (V=½×a×b^2) was calculated according to the measured major diameter and transverse diameter data of the tumors, the curve was drawn and the tumors were observed dynamically. […]
The overall survival time of the tumor-bearing mice: the nude mice in each group after processing were fed until natural death, and the survival time was calculated.

The mark [1] stands for this setting: spores 3×10^8/(kg·body weight) i.v. day 1, drug i.v. 4th and 11th day (Docetaxel 20, Cetuximab 70, Adriacin 10 mg/kg).

The structures appear in SMILES notation.

In the case of `CC(=O)O[C@@]12CO[C@@H]1C[C@H](O)[C@@]1(C)C(=O)[C@H](O)C3=C(C)[C@@H](OC(=O)[C@H](O)[C@@H](NC(=O)OC(C)(C)C)c4ccccc4)C[C@@](O)([C@@H](OC(=O)c4ccccc4)[C@H]21)C3(C)C` [Docetaxel], the Cure rate (animals with tumor completely removed/total, spores 3×10^8/kg day 1, drug i.v. 4th and 11th day) came to 0%. Under setting [1], the Necrosis rate is on record as 22.2% and the Tumor inhibition rate is recorded as 55.9%. Moreover, the mean survival days (spores 3×10^8/kg day 1, drug i.v. 4th and 11th day, fed until natural death) was 35.5 days.
